These results are taken from patent US8592363B2, “ψεrack peptide composition and method for protection against tissue damage due to ischemia” (The Board of Trustees of the Leland Stanford Junior …, priority 2000, dated 2013).

One experiment relates to whole rat hearts. Description: Ex vivo administration of ψεRACK after ischemia: CPK release in perfusate during reperfusion. The conditions noted are these: 0.5 μM peptide for first 20 minutes of reperfusion after 45 minutes ischemia; 60 minute period; FIG. 3B. How it is done: In another study performed in support of the invention, ψεRACK was administered to hearts ex vivo after a prolonged ischemic period and was effective to provide protection from ischemic injury. As described in Example 2, whole rat hearts were perfused on a Langendorff apparatus. After a 30 minute equilibration period, global ischemia was induced by stopping fluid flow for 45 minutes. The hearts were then reperfused with or without ψεRACK peptide for 20 minutes followed by 40 minutes perfusion without peptide. During the 60 minutes following ischemia (20 minutes of peptide reperfusion plus 40 minutes perfusion), the CPK activity in the perfusate was analyzed.
Rat hearts were prepared as described in Example 1. After a 30 minute equilibration period, global ischemia was induced by interrupting fluid flow for 45 minutes. The hearts were then reperfused with 0.5 μM of ψεRACK peptide for 20 minutes, followed by 40 minutes of reperfusion without the peptide. As a control, some hearts were left untreated after ischemia. During the 60 minute period following ischemia, ischemia-induced cell damage was determined by monitoring the creatine phosphokinase (CPK) activity (absorbance at 520 nm) in the perfusate collected during reperfusion.

In a further experiment the test system is ex vivo rat hearts. Description: Ex vivo administration of ψεRACK prior to ischemia: CPK release in perfusate of Langendorff-perfused hearts. As to conditions: 0.5 μM peptide for 20 minutes prior to 45 minutes global ischemia; 30 minute reperfusion; FIG. 1A. Here is the method: Animals were anesthetized as described in Example 1 and their hearts were rapidly removed and cannulated for perfusion on a Langendorff apparatus. Hemodynamic parameters were monitored until stabilized, typically for 10-20 minutes. After equilibration, ψεRACK peptide (SEQ ID NO:2) or a scrambled ψεRACK peptide (SEQ ID NO:4) were delivered to the hearts via the coronary arteries using 0.5 μM of peptide for 20 minutes.
To induce global ischemia, flow to the hearts was interrupted for 45 minutes. The hearts were then reperfused for 30 minutes. During reperfusion, ischemic-induced cell damage was determined by measuring the activity of creatine phosphokinase (absorbance at 520 nm) in the perfusate. […]
Mice or rats were anesthetized with i.p. avertin, and their hearts were rapidly removed and cannulated via the aorta for reperfusion as described in the art (Colbert et al, 1997). […] The left ventricular pressure and real-time derivative (dP/dt) were monitored via a catheter placed in the ventricular apex. […]
To induce global ischemia, flow was interrupted for 45 minutes. […] During reperfusion, ischemia-induced cell damage was determined by measuring the activity of creatine phosphokinase (CPK) (absorbance at 520 nm) in the perfusate using a Sigma kit.

Experiment [1] deals with pig heart. Briefly: Left ventricurogram (ejection fraction) in pigs after LAD occlusion. The experiment is classed as in vivo. Here is the method:
In another study, left ventricurogram (LVG) was performed in pigs (n=5) at three time points: (1) before occlusion of left anterior descending artery by balloon catheter (before occlusion); (2) immediately after reperfusion with 5 μM/10 mL of ψεRACK (post ψεRACK); and (3) before sacrifice five days later (5 days post), using 6 Fr. of pig-tail catheter. LVG was recorded by two views, right anterior oblique and left anterior oblique. Ejection fraction (EF), the percent of blood ejected in a beat, during maximum contraction, of the total maximum present in the left ventricle, was analyzed by the software, Plus Plus (Sanders Data Systems), and the averages of two views were evaluated. […] Accordingly, delivery of a ψεRACK peptide in vivo after ischemia is effective to reduce cell and tissue damage, as evidenced by an ejection fraction at least 10% greater than that of untreated cells or tissues.

In the next experiment the test system is ex vivo hearts. Description: Functional recovery of ex vivo hearts after global ischemia (left ventricle pressure, dP/dt, perfusion pressure). On the set-up: species or system Mice or rats. The conditions noted are these: 500 nM peptide prior to 30 minute global ischemia; 30 minute reperfusion. How it is done: In another study in support of the invention, the functional recovery of ex vivo hearts after an ischemic event was evaluated by monitoring, the isovolumic left ventricle pressure (LVP) at a constant pacing (3.3 Hz) and at a constant coronary flow (10 mL/min), as described in Example 1. Prior to the ischemic event, the hearts were treated with 500 nM ψεRACK (SEQ ID NO:2) or with scrambled ψεRACK peptide (SEQ ID NO:4). After the 30 minute global ischemia, the hearts were monitored during a 30 minute reperfusion period.
Mice or rats were anesthetized with i.p. avertin, and their hearts were rapidly removed and cannulated via the aorta for reperfusion as described in the art (Colbert et al, 1997). Care was taken to have the hearts perfused within 90 seconds of removal. The left ventricular pressure and real-time derivative (dP/dt) were monitored via a catheter placed in the ventricular apex. Hemodynamic parameters were archived every 20 seconds throughout the procedure. The hearts were perfused with oxygenated Krebs-Henseleit solution comprised of, in […], NaCl 120; KCl 5.8; NaHCO3 25; NaH2O4 1.2; MgSO4 1.2; CaCl2 1.0; and dextrose 10, pH 7.4 at 37 C.
After a 10-20 minute equilibration period, the hearts were treated with ψεRACK peptide (SEQ ID NO:2) or with scrambled ψεRACK peptide (SEQ ID NO:4) for 20 minutes. […]

Experiment [2] relates to pig heart. Description: In vivo administration during LAD balloon occlusion in pigs: infarct area of area at risk. As to conditions: for infarct of area at risk: about 20 μg peptide during first 10 minutes of 30 minute occlusion, hearts analysed five days later, average, p<0.005. How it is done:
In another study in support of the invention, the ability of ψεRACK peptide to protect tissue from damage due to an ischemic or hypoxic event was evaluated by administering the peptide in vivo. As detailed in Example 3, ψεRACK peptide (SEQ ID NO:2) or scrambled ψεRACK peptide (SEQ ID NO:4) was administered to adult pigs during the first 10 minutes of a 30 minutes ischemic insult. Five days later, the hearts were analyzed for tissue damage.
Young adult female pigs, 35-40 kg in weight, were anesthetized and a catheter was introduced through the carotid artery into the heart. Using conventional intervention cardiology techniques, a wire was placed through a catheter and into the left anterior descending artery (LAD): A balloon was run over this wire to a site of occlusion where it was then inflated to block blood flow for 30 minutes. During the first 10 minutes of the ischemic insult, either the control scrambled ψεRACK peptide (SEQ ID NO:4, n=5) or the biologically active RACK peptide (SEQ ID NO:2, n=5) was delivered by diffusion through the balloon directly downstream of the occlusion. Approximately 20 μg peptide (˜400 ng per kg body weight) was administered.
After 30 minutes of occlusion, the balloon was removed and pigs were left to recover from surgery. Five days later, the pigs were euthanized and hearts were harvested. After heart removal, the LAD was occluded. With the occlusion in place, Evans Blue dye, which stains all areas not at risk of infarct in blue while leaving all areas with no access to blood flow red, was infused. Hearts were then cut into slices and stained with a tetrazolium red dye which stains all live areas red and infarcted dead tissue in white. Each heart had multiple tissue slices with distinctive areas marking the area at risk for ischemia and the infarcted area. From this the percent infarct per area at risk for each slice and for the entire heart was determined.

[3] abbreviates: pigs, 5 days post ischemia and treatment.

With “HDAPIGYD (pseudo-epsilon RACK octapeptide) [ψεRACK, ψεRACK octapeptide, εPKC specific agonist peptide]”, in the experiment with whole rat hearts, the “lower total CPK release versus untreated hearts” value is on record as about 2 fold. In addition, in the experiment on ex vivo rat hearts, the “creatine phosphokinase (CPK) release during reperfusion” value is given as “close to the control hearts maintained under normoxia conditions”. The “ejection fraction after occlusion compared to control animals treated with scrambled peptide” value in the experiment on pig heart [1] (pigs n=5, 5 μM/10 mL ψεRACK, immediately after reperfusion, FIG. 5) is listed as “higher ejection fraction”. Moreover, in the experiment on pig heart [1] (setting [3]), the “ejection fraction compared with that before ischemia” value is reported as “on par with that measured prior to ischemia” and the “ejection fraction higher than the untreated animals” value is on record as “about 10%”. In the experiment on ex vivo hearts, the coronary perfusion pressure entry is recorded as “reduced” and the “elevated LVP end diastolic pressure” value is recorded as “reduced”. For the same sequence, the “infarct of area at risk” value with pig heart [2] was determined as 14.9±6%. In addition, in the experiment with pig heart [2] (infarct area as percent of area at risk, in grams of cardiac tissue, FIG. 4C), the “reduction of percent infarct versus scrambled peptide control” value is reported as “more than 2 fold”.
Take “PDYHDAGI (scrambled pseudo-epsilon RACK octapeptide) [scrambled ψεRACK, scrambled ψεRACK octapeptide, negative control, reference compound]”: in the experiment on ex vivo rat hearts, the “creatine phosphokinase (CPK) release during reperfusion” value is recorded as “significant release of CPK”. Further, the “infarct of area at risk” value with pig heart [2] was determined as 36.5±0.3%.
